Data reported in patent US20220378739A1, “NATURAL KILLER CELL IMMUNOTHERAPY FOR THE TREATMENT OF GLIOBLASTOMA AND OTHER CANCERS” (BOARD OF REGENTS, THE UNIVERSITY OF TEXAS SYSTEM, priority 2019, published 2022).

Tested on: TiNKs / HC-NK cells rendered dysfunctional by GSCs
Assay: Reversal of established NK cell dysfunction (TiNKs ex vivo; NK cell recovery assays)
Type: cell-based, human
Protocol: FIGS. 11A-11G. […] (FIG. 11A) NK cells were incubated with or without galunisertinib (10 μM) or LY2109761 (10 μM) for 48 hours. Representative zebra plots show their CD107a, IFN-γ, and TNF-α response to K562 targets. NK cells were gated on CD3-CD56+ lymphocytes. Inset numbers are the percentages of CD107a-, IFN-γ- or TNF-α-positive NK cells within the gated NK cell population. (FIGS. 11B-11C) NK cells were cultured either alone or with GSCs in a 1:1 ratio with or without LY2109761 or galunisertib for 48 hrs. Representative zebra plots and summary box plots show their CD107, IFN-γ, and TNF-α expression response to K562 (FIG. 11B) or GSC (FIG. 11C) targets. Effector:target ratio is 5:1. NK cells were defined as CD3-CD56+ lymphocytes. Inset numbers are the percentages of CD107a-, IFN-γ- or TNF-α-positive NK cells (n=7, n=4 respectively). (FIG. 11D) TiNK cells were cultured for 24 hours in media with 5 ng/ml IL-15 with or without galunisertib. Representative zebra plots and bar graph summary show their CD107, IFN-γ, and TNF-α response to K562 targets. Effector:target ratio is 5:1. NK cells were gated on CD3-CD56+ lymphocytes. Inset numbers are the percentages of CD107a-, IFN-γ- or TNF-α-positive NK cells within the indicated regions. (n=3). (FIG. 11E) TiNK cells and paired PB-NK cells from GBM patients were cultured in the presence or absence of galunisertib for 12 hours. The bar graphs summarize the mean fluorescence intensity (MFI) for their p-Smad⅔ expression. Paired t test was performed to determine statistical significance (n=3). (FIG. 11F) Specific lysis (^51Cr release assay) of K562 targets by NK cells. After 48 hours of culture alone (blue lines) or with GSCs, healthy donor NK cells were either left with GSCs (red lines), or purified and re-suspended in media for another 48 hours (black lines). NK cells were then collected and used for ^51Cr release assay (n=4). (FIG. 11G) Specific lysis (^51Cr release assay) of K562 targets by NK cells. After 48 hours of culture alone (blue lines) or with GSCs, healthy donor NK cells were either left with GSCs ([…]) or purified and cultured in SCGM media plus 5 ng/ml IL-15 with (black lines) or without galunisertib (10 μM) (gray lines) for […]. At the end of the culture period, their cytotoxicity was tested against k562 targets by ^51Cr release assay (n=4).
NK cells were cultured either with GSCs in a 1:1 ratio or alone for 48 hours. After 48 hours of co-incubation, NK cells were then either purified again by bead selection and resuspended in SCGM media or remained in culture with GSCs for an additional 48 hours and then used for ^51Cr release assay. In a second assay, after reselection, NK cells were cultured for another 5 days in SCGM in the presence of 5 ng/ml IL-15 with or without 10 μM galunisertib before use for ^51Cr release assay.

## Cc1cccc(-c2nn3c(c2-c2ccnc4ccc(C(N)=O)cc24)CCC3)n1 [galunisertib]
NK cells purified after 48 hours with GSCs, then IL-15 5 ng/ml with or without galunisertib 10 μM
  reversal of GSC-induced dysfunction of HC-NK cells: did not reverse the dysfunction of HC-NK cells induced by GSCs
TiNKs cultured 24 hours, galunisertib 10 μM or IL-15 5 ng/ml
  restoration of TiNK function (specific lysis of K562; CD107, IFN-γ, TNF-α): failed to inactivate the TGF-β1 Smad⅔ signaling pathway and restore NK cell dysfunction
TiNKs from GBM patients cultured ex vivo, galunisertib 12 hours or IL-15
  TGF-β1 Smad⅔ signaling in TiNKs: failed to inactivate the TGF-β1 Smad⅔ signaling pathway
